In patent publication US10695589B1, “Method and kit for home controlled ovarian stimulation for in vitro fertilization” (priority 2019, dated 2020):
Square brackets hold non-standard residues; d marks the D form. Peptide text beside a SMILES is read from it. d(hArg(Et2)) = CCN=C(NCC)NCCCC[C@@H](N)C(=O)O; hArg(Et2) = CCN=C(NCC)NCCCC[C@H](N)C(=O)O; dPhe(4-Cl) = N[C@H](Cc1ccc(Cl)cc1)C(=O)O; d2Nal = N[C@H](Cc1ccc2ccccc2c1)C(=O)O; d3Pal = N[C@H](Cc1cccnc1)C(=O)O

Legend:
[1] = system: Luteinizing hormone (LH) blood level; test: LH blood hormone level in patients on conventional GnRH antagonist protocol with Ganirelex/Cetrotide injectables (Example 1); format: in vivo, female patients
Protocol: Five female patients were treated with a GnRH antagonist protocol requiring injections of medications.
One patient, patient no. 1, was injected with 150 Units of FSH on days 3 to 12; half a syringe of 150 mcg/0.5 mL of ganirelix acetate on days 11 and 12; and 50 mg of clomiphene citrate on days 3 to 12; and 2.5 mg of letrozole on days 3 to 7. Luteinizing hormone (LH) blood level was 4.3 mIU/mL on day 10 and dropped to 2 mIU/mL on day 12.
A second patient, patient no. 2, was injected with 75 Units of FSH on days 4 to 12 and 150 Units on day 13; half a syringe of 150 mcg/0.5 mL of ganirelix acetate on days 11 to 13; 50 mg of clomiphene citrate on days 10 to 12, and 2.5 mg of letrozole on days 3 to 7. Luteinizing hormone (LH) blood level was 12.0 mIU/mL on day 11 and dropped to 6.3 mIU/mL on day 13.
Three patients, numbered 3 to 5, were injected with 75, 150 and 225 Units of FSH, respectively, on days 4 to 12 and one third a syringe of 150 mcg/0.5 mL of ganirelix acetate on days 11 to 13. Patient no. 3 received 50 mg of clomiphene citrate on days 4 to 12, and 2.5 mg of letrozole on days 4 to 8. Patient no. 4 received 100 mg of clomiphene citrate and 2.5 mg of letrozole on days 4 to 8, and 50 mg of clomiphene citrate on days 9 to 11. Patient no. 5 received no clomiphene citrate or letrozole. Luteinizing hormone (LH) blood level was 12.0, 18.0 and 14.6 mIU/mL, respectively, on day 10 and dropped to 4.9, 16.0 and 14.1 mIU/mL, respectively, on day 12.
(§1) Table 2 below provides a comparison of the efficacy of conventional Ganirelex/Cetrotide injectables treatment for IVF in the five representative patients from Example 1 with the home controlled ovarian hyperstimulation method described herein in the five representative patients from Example 2.

[2] = system: Luteinizing hormone (LH) blood level; test: LH blood hormone level in patients on home controlled ovarian hyperstimulation method with vaginal elagolix (Example 2); format: in vivo, female patients
Protocol: On day 9 of the menstrual cycle, the patient is directed to orally take 50 to 150 mg, preferably 100 mg, (one, two, or three 50 mg oral tablets) of clomiphene citrate and to either insert vaginally or take orally, depending on the patient's preference, a gonadotropin-releasing hormone (GnRH) antagonist such as elagolix (marketed as ORILISSA®), instead of the expensive injections of ganirelix acetate (GANIRELEX®) or cetrorelix acetate (marketed as CETROTIDE®) used routinely in conventional practices. A dose of 25 mg (⅛^th of a pill) up to 200 mg of elagolix (1 full pill), preferably 25 mg, will be used, with the dose being the same whether inserted vaginally or taken orally. Elagolix is a GnRH antagonist that is conventionally used in the treatment of pain associated with endometriosis in women, not for the treatment of infertility. By blocking the GnRH receptor, elagolix suppresses LH release by the pituitary gland and thus prevents LH surge. Ultimately, elagolix suppresses gonadal steroid production, thereby reducing circulating levels of sex hormones such as progesterone, estradiol, and testosterone. Elagolix is generally an oral medication (oral tablet), however in the present method, elagolix is a tablet taken mainly as a vaginal suppository, but may be taken orally based on the patient's preference. Additionally, the lowest and most preferred dose of elagolix (25 mg) that is used is one-eighth of the daily dosage conventionally administered for the treatment of endometriosis (e.g., 200 mg to 400 mg daily). […] Alternative GnRH receptor antagonists that can be used instead of elagolix include linzagolix and relugolix.
Five female patients were treated with the controlled ovarian hyperstimulation method described herein using the elagolix pill (vaginal route) instead of the conventional Ganirelex/Cetrotide injectables. On day 3 of the patient's menstrual cycle, the patient orally took 100 mg (two 50 mg oral tablets) of clomiphene citrate and 5 mg (two 2.5 mg oral tablets) of letrozole. The patient then took the same oral dosages of clomiphene citrate and letrozole daily on each of days 4-7 of the patient's menstrual cycle. On day 8 of the patient's menstrual cycle, the patient orally took only 100 mg (two 50 mg oral tablets) of clomiphene citrate, and stopped the letrozole. On day 9 of the menstrual cycle, the patient orally took 100 mg (two 50 mg oral tablets) of clomiphene citrate and inserted vaginally a 50 mg tablet of elagolix as a vaginal suppository. On day 10 of the menstrual cycle, the patient orally took only 100 mg (two 50 mg oral tablets) of clomiphene citrate. On day 11 of the menstrual cycle, the patient orally took 100 mg (two 50 mg oral tablets) of clomiphene citrate and inserted vaginally a 50 mg tablet of elagolix as a vaginal suppository. Also, on day 11, the patient took a home ovulation test in the morning (9:00 am) and in the evening (9:00 pm). For the patients whose ovulation tests were not positive, then on days 12 and 13, the patient took 2 doses of leuprorelin as a nasal spray (1:40 dilution in saline) as follows. On day 12, after taking a home ovulation test at 9:00 am, 2 puffs (sprays) of the nasal spray were self-administered by the patient per nostril. After 12 hours of waiting, at 9:00 pm the patient took a home urine ovulation test and then self-administered 2 more puffs (sprays) of the nasal spray per nostril. On day 13, the patient repeated the procedure of day 12. Luteinizing hormone (LH) blood level was 7.0 mIU/mL on day 11 and dropped to 1.0 mIU/mL on day 13.
as §1

[3] = Example 2 patient 4, 50 mg elagolix vaginal suppository on days 9 and 11
[4] = Example 2 patient 5, 50 mg elagolix vaginal suppository on days 9 and 11

With `CCN=C(NCC)NCCCC[C@H](NC(=O)[C@H](CC(C)C)NC(=O)[C@@H](CCCCNC(=NCC)NCC)NC(=O)[C@H](Cc1ccc(O)cc1)NC(=O)[C@H](CO)NC(=O)[C@@H](Cc1cccnc1)NC(=O)[C@@H](Cc1ccc(Cl)cc1)NC(=O)[C@@H](Cc1ccc2ccccc2c1)NC(C)=O)C(=O)N1CCC[C@H]1C(=O)N[C@H](C)C(N)=O` [Ganirelex, ganirelix acetate] (Ac-[d2Nal][dPhe(4-Cl)][d3Pal]SY[d(hArg(Et2))]L[hArg(Et2)]P[dA]-NH2) the “LH blood hormone level BEFORE medication intake” value ([1]; Example 1 patient 1, day 10, half a syringe of 150 mcg/0.5 mL ganirelix acetate on days 11 and 12, FSH 150 Units days 3-12, clomiphene citrate 50 mg days 3-12, letrozole 2.5 mg days 3-7) was 4.3 mIU/mL, the “% Drop in blood LH hormone level” value ([1]; Example 1 patient 1, day 10 to day 12) was 53.5% and the “% Drop in blood LH hormone level” value ([1]; Example 1 patient 1, day 10 to day 12, listed as Conventional Ganielex/Cetrotide Injectables) was 53.5%. The “LH blood hormone level AFTER medication intake” value ([1]; Example 1 patient 1, day 12, half a syringe ganirelix acetate on days 11 and 12) was 2 mIU/mL, the “LH blood hormone level AFTER medication intake” value ([1]; Example 1 patient 1, day 12, half a syringe ganirelix acetate on days 11 and 12, listed as Conventional Ganielex/Cetrotide Injectables) was 2.0 mIU/mL and the “LH blood hormone level BEFORE medication intake” value ([1]; Example 1 patient 2, day 11, half a syringe of 150 mcg/0.5 mL ganirelix acetate on days 11 to 13, FSH 75 Units days 4-12 and 150 Units day 13, clomiphene citrate 50 mg days 10-12, letrozole 2.5 mg days 3-7) was 12.0 mIU/mL. The “% Drop in blood LH hormone level” value ([1]; Example 1 patient 2, day 11 to day 13) was 47.5%, the “% Drop in blood LH hormone level” value ([1]; Example 1 patient 2, day 11 to day 13, listed as Conventional Ganielex/Cetrotide Injectables) was 47.5% and the “LH blood hormone level AFTER medication intake” value ([1]; Example 1 patient 2, day 13, half a syringe ganirelix acetate on days 11 to 13) was 6.3 mIU/mL. For the same compound, the “LH blood hormone level BEFORE medication intake” value ([1]; Example 1 patient 3, day 10, one third a syringe of 150 mcg/0.5 mL ganirelix acetate on days 11 to 13, FSH 75 Units days 4-12, clomiphene citrate 50 mg days 4-12, letrozole 2.5 mg days 4-8) was 12.0 mIU/mL, the “% Drop in blood LH hormone level” value ([1]; Example 1 patient 3, day 10 to day 12) was 59.25% and the “% Drop in blood LH hormone level” value ([1]; Example 1 patient 3, day 10 to day 12, listed as Conventional Ganielex/Cetrotide Injectables) was 59.2%. For the same compound, the “LH blood hormone level AFTER medication intake” value ([1]; Example 1 patient 3, day 12, one third a syringe ganirelix acetate on days 11 to 13) was 4.9 mIU/mL, the “LH blood hormone level BEFORE medication intake” value ([1]; Example 1 patient 4, day 10, one third a syringe of 150 mcg/0.5 mL ganirelix acetate on days 11 to 13, FSH 150 Units days 4-12, clomiphene citrate 100 mg and letrozole 2.5 mg days 4-8, clomiphene citrate 50 mg days 9-11) was 18.0 mIU/mL and the “% Drop in blood LH hormone level” value ([1]; Example 1 patient 4, day 10 to day 12) was 11.1%. The “% Drop in blood LH hormone level” value ([1]; Example 1 patient 4, day 10 to day 12, listed as Conventional Ganielex/Cetrotide Injectables) was 11.1%, the “LH blood hormone level AFTER medication intake” value ([1]; Example 1 patient 4, day 12, one third a syringe ganirelix acetate on days 11 to 13) was 16.0 mIU/mL and the “LH blood hormone level BEFORE medication intake” value ([1]; Example 1 patient 5, day 10, one third a syringe of 150 mcg/0.5 mL ganirelix acetate on days 11 to 13, FSH 225 Units days 4-12, no clomiphene citrate or letrozole) was 14.6 mIU/mL. For the same compound, the “% Drop in blood LH hormone level” value ([1]; Example 1 patient 5, day 10 to day 12) was 3.4%, the “% Drop in blood LH hormone level” value ([1]; Example 1 patient 5, day 10 to day 12, listed as Conventional Ganielex/Cetrotide Injectables) was 3.4% and the “LH blood hormone level AFTER medication intake” value ([1]; Example 1 patient 5, day 12, one third a syringe ganirelix acetate on days 11 to 13) was 14.1 mIU/mL.
In the case of `COc1cccc(-c2c(C)n(Cc3c(F)cccc3C(F)(F)F)c(=O)n(C[C@H](NCCCC(=O)O)c3ccccc3)c2=O)c1F` [elagolix], the “LH blood hormone level BEFORE medication intake” value ([2]; Example 2 patient 1, day 11, 50 mg elagolix tablet as vaginal suppository on days 9 and 11, clomiphene citrate 100 mg days 3-11, letrozole 5 mg days 3-7) is reported as 7.0 mIU/mL, the “LH blood hormone level AFTER medication intake” value ([2]; Example 2 patient 1, day 13, 50 mg elagolix vaginal suppository on days 9 and 11) is reported as 1.0 mIU/mL and the “LH blood hormone level AFTER medication intake” value ([2]; Example 2 patient 2, 50 mg elagolix vaginal suppository on days 9 and 11) is reported as 5.7 mIU/mL. For the same compound, the “LH blood hormone level AFTER medication intake” value ([2]; Example 2 patient 3, 50 mg elagolix vaginal suppository on days 9 and 11) was 3.2 mIU/mL, the “LH blood hormone level AFTER medication intake” value [2, 3] was 1.7 mIU/mL and the “LH blood hormone level BEFORE medication intake” value [2, 3] was 8.2 mIU/mL. For the same compound, the “LH blood hormone level AFTER medication intake” value [2, 4] was 0.8 mIU/mL, the “LH blood hormone level BEFORE medication intake” value [2, 4] was 7 mIU/mL and the “GnRH antagonist effect in the patients” value ([2]; lower dose of elagolix taken as a vaginal suppository instead of orally) was “effective GnRH antagonist”.
